Assay results reported in patent publication US20220031738A1, “IRON FORMULATIONS FOR TOPICAL ADMINISTRATION AND METHODS OF TREATMENT OF IRON DEFICIENCY” (DYVE BIOSCIENCES, INC., priority 2018, published 2022).
Blank lines part the entries; values can stand above or below the compound they belong to.

Legend:
Type in all cases: in vivo
[1] = system: Anemic pregnant human patients; test: Topical vs oral vs intravenous iron for anemia in pregnancy
Protocol: In this experiment, iron (in the form of ferrous sulfate) in formulations of the invention was tested for its ability to treat anemia in pregnant patients, and compared to orally or intravenously delivered iron supplementation.
In vivo tests were performed as follows: Anemic pregnant human patients were treated with either topical, oral or intravenous iron supplementation during 14 to 34 weeks of pregnancy. Trial design was built to assess these primary outcomes: haemoglobin and serum ferritin levels. Treatment groups randomized as follows: • a. Oral iron supplement group (200 mg of ferrous fumarate per day) • b. Intravenous iron supplement group (200 mg of iron sucrose was administered in 100 ml 0.9% sodium chloride per day) • c. Topical iron supplement group (3.34 g of topical formulation applied per day) Formulations detailed in Table 3 below

[2] = system: Anemic human patients with progressive renal insufficiency; test: Topical vs oral vs intravenous iron supplementation in anemic patients with progressive renal insufficiency treated with erythropoietin
Protocol: In this experiment, iron (in the form of ferrous sulfate) in formulations of the invention was tested for its ability to treat anemia in patients with progressive renal insufficiency, and compared to orally or intravenously delivered iron supplementation.
In vivo tests were performed as follows: Anemic human patients with progressive renal insufficiency were treated with either topical, oral or intravenous iron supplementation and evaluated at baseline, 3 months and 6 months. Trial design was built to assess these primary outcomes: hemoglobin response, serum ferritin levels, changes in red cell hypochromasia, and incidence of adverse events. Treatment groups randomized as follows: • Oral iron supplement group (ferrous sulphate 200 mg tds) • Intravenous iron supplement group (300 mg iron sucrose monthly) • Topical iron supplement group (3.34 g of topical formulation applied tds) Formulations detailed below in Table 1 • In all groups Erythropoietin (rHuEpo) treatment was simultaneously commenced.

[3] = system: human iron-depleted, nonanemic women; test: Topical vs oral iron to improve endurance after training in iron-depleted, nonanemic women; conditions: oral = ferrous sulfate 100 mg per day
Protocol: In this experiment, iron (in the form of ferrous sulfate) in formulations of the invention was tested for its ability to help improve endurance after training in iron-depleted, nonanemic women and compared to orally delivered iron supplementation.
In vivo tests were performed as follows: human iron-depleted (serum ferritin <16 μg/l), nonanemic (Hb >12 g/dl) women (18-33 yr old) were treated with either topical or oral iron supplementation for 6 weeks. Subjects trained for 30 min/day, 5 days/wk at 75-85% of maximum heart rate for the final 4 wk of the study. Trial design was built to assess this primary outcome: change in 15 km time from baseline to […]. Treatment groups randomized as follows: • a. Control group: oral placebo • b. Oral iron supplement group (100 mg of ferrous sulfate per day) • c. Topical iron supplement group (1.67 g of topical formulation applied daily) Formulations detailed in Table 6 below

[4] = system: Anemic human patients with progressive renal insufficiency; test: Topical vs oral vs intravenous iron for iron deficiency in non-hemodialysis-dependent patients with chronic kidney disease; conditions: oral = ferrous sulphate 325 mg thrice daily; intravenous ferric carboxymaltose; topical = 5.42 g Table 2 formulation tds
Protocol: In this experiment, iron (in the form of ferrous sulfate) in formulations of the invention was tested for its ability to treat iron deficiency in non-hemodialysis dependent patients with chronic kidney disease, and compared to orally or intravenously delivered iron supplementation.
In vivo tests were performed as follows: Anemic human patients with progressive renal insufficiency were treated with either topical, oral or intravenous iron supplementation. Trial design was built to assess these primary outcomes: hemoglobin response, and incidence of adverse events. Treatment groups randomized as follows: • a. Oral iron supplement group (ferrous sulphate 325 mg thrice daily for a total of 195 mg elemental iron daily) • b. Intravenous iron supplement group (intravenous ferric carboxymaltose 1000 mg over 15 min (with up to two additional doses of 500 mg at 2-week intervals)) • c. Topical iron supplement group (5.42 g of topical formulation applied tds) Formulations detailed in Table 2 below.

[5] = system: human IBD patients with anemia; test: Topical vs oral vs intravenous iron for anemia in inflammatory bowel disease
Protocol: In this experiment, iron (in the form of ferrous sulfate) in formulations of the invention was tested for its ability to help treat anemia in inflammatory bowel disease (IBD) patients and compared to orally or intravenously delivered iron supplementation.
In vivo tests were performed as follows: human IBD patients with anemia were treated with either topical, oral or intravenous iron supplementation for 12 weeks. Trial design was built to assess this primary outcome: change in hemoglobin (Hb) from baseline to week 12. Treatment groups randomized as follows: • a. Oral iron supplement group (FeSulf containing 100 mg ferrous iron (II). Patients received one capsule b.i.d. for 12 wk) • b. Intravenous iron supplement group (ferric carboxymaltose (FeCarb) 50 mg ferric iron (III) per milliliter in water with individual patient dosage calculated according to the formula of Ganzoni) • c. Topical iron supplement group (1.67 g of topical formulation applied b.i.d.) Formulations detailed in Table 5 below

[6] = system: human patients with chemotherapy-related anemia; test: Topical vs oral vs intravenous iron in anemic cancer patients receiving darbepoetin alfa; conditions: 8 weeks, with darbepoetin alfa 500 mcg every 3 weeks; oral = sucrosomial iron 30 mg daily; IV = ferric gluconate 125 mg weekly; topical = 0.50 g Table 4 formulation daily
Protocol: In this experiment, iron (in the form of ferrous sulfate) in formulations of the invention was tested for its ability to help treat chemotherapy-induced anemia in cancer patients when combined with erythropoiesis-stimulating agents (ESAs), and compared to orally or intravenously delivered iron supplementation. […] Trial design was built to assess this primary outcome: Hb response as defined as the Hb increase ≥2 g/dL from baseline or the attainment Hb ≥12 g/dL. Treatment groups randomized as follows: • a. Oral iron supplement group (sucrosomial iron 30 mg daily) • b. […] Topical iron supplement group (0.50 g of topical formulation applied daily) Formulations detailed in Table 4 below

Compound: O=C([O-])/C=C/C(=O)[O-].[Fe+2] [ferrous fumarate]
- participants with an improvement in hemoglobin more than 20 g/L ([1]; same arms as E9): 11%

Compound: O=S(=O)([O-])[O-].[Fe+2] [ferrous sulphate]
- allergic reactions reported, share of patients ([2]; oral = ferrous sulphate, intravenous = iron sucrose, transdermal = Table 1 formulation): none
- decrease in 15-km time vs the placebo control group ([3]; topical = 1.67 g Table 6 formulation daily): statistically significantly greater
- decrease in 15-km time, oral versus transdermal ([3]; transdermal = 1.67 g Table 6 formulation daily): no statistical difference

Compound: ferric carboxymaltose
- treatment-related adverse events [4]: 2.7%
- median Hb after treatment (week 12) ([5]; 12 weeks, same arms as E16): 12.3 g/dL
- median Hb at baseline ([5]; before treatment, oral = FeSulf 100 mg ferrous iron b.i.d., IV = ferric carboxymaltose (Ganzoni dose), topical = 1.67 g Table 5 formulation b.i.d.): 8.7 g/dL

Compound: ferric gluconate
- patients achieving an erythropoietic (Hb) response: Hb increase ≥2 g/dL from baseline or Hb ≥12 g/dL [6]: Seventy one

- allergic reactions reported, share of patients ([2]; human, in vivo): 10%
Compound: iron sucrose
- serum ferritin levels versus oral ([2]; comparator oral ferrous sulphate 200 mg tds, intravenous = iron sucrose 300 mg monthly, topical = 3.34 g Table 1 formulation tds): statistical significantly higher
- serum ferritin levels, topical versus intravenous ([2]; intravenous = iron sucrose 300 mg monthly, topical = 3.34 g Table 1 formulation tds): not statistically different
- change in hemoglobin ([1]; pregnant women, 14 to 34 weeks of pregnancy, oral = ferrous fumarate 200 mg per day, intravenous = iron sucrose 200 mg per day, topical = 3.34 g Table 3 formulation per day): 22 ± 11.5 g/L
- patients with increase in ferritin level between 51 to 100 ng/ml ([1]; same arms as E9): 48%
